One may read the Ki as the equilibrium dissociation constant of an inhibitor or competing ligand from its target. A lower Ki goes with tighter binding.

Results on 2 compounds are retold here after BindingDB's records for doi:10.1124/jpet.104.081257 (Abbott Laboratories, 2005).

Test [1] concerns the target Progesterone receptor (Homo sapiens) (UniProt P06401).
Test [2] deals with T1, Glucocorticoid receptor (Rattus norvegicus, UniProt P06536).
T1 sequence (P06536 whole entry): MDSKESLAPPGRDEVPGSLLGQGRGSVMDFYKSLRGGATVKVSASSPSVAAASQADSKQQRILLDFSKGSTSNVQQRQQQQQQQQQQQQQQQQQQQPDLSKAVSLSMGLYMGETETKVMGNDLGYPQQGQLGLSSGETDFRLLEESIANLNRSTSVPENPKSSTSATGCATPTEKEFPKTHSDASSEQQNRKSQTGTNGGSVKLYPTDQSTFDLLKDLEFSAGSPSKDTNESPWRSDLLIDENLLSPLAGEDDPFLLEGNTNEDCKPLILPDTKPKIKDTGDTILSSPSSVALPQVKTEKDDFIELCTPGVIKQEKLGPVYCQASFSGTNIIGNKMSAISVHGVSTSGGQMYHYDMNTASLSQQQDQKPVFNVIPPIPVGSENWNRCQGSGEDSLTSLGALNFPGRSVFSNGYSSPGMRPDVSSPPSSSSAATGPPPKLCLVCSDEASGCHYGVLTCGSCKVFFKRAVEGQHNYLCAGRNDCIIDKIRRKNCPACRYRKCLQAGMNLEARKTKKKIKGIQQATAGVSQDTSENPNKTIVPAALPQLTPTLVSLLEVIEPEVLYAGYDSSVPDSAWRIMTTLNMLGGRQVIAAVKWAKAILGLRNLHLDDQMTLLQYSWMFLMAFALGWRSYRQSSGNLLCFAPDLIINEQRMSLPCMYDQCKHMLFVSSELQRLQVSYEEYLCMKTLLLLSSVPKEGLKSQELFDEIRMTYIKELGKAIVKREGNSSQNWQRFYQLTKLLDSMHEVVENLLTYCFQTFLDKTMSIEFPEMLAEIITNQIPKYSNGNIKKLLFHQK

Test [3] concerns the target Estrogen receptor beta (Homo sapiens, UniProt Q92731).
The target of test [4] is T2, Estrogen receptor (Rattus norvegicus, UniProt P06211).
T2 sequence (P06211 whole entry): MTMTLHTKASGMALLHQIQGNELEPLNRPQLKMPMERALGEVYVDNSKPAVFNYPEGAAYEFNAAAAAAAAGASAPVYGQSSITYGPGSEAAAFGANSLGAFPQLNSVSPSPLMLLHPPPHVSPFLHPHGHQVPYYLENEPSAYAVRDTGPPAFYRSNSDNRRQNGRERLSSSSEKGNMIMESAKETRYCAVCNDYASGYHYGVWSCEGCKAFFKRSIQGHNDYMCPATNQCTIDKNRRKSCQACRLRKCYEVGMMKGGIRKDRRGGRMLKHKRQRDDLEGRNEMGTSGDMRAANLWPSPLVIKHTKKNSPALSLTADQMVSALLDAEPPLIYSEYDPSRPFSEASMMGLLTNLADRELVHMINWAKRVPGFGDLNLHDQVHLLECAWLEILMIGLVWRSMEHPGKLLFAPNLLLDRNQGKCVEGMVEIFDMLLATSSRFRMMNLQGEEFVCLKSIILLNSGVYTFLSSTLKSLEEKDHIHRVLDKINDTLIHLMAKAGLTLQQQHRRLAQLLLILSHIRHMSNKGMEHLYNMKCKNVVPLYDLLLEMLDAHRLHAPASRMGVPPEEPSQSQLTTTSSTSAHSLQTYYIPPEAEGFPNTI

The target of test [5] is T3, Thyroid hormone receptor beta (Rattus norvegicus, UniProt P18113).
T3 sequence (P18113 whole entry): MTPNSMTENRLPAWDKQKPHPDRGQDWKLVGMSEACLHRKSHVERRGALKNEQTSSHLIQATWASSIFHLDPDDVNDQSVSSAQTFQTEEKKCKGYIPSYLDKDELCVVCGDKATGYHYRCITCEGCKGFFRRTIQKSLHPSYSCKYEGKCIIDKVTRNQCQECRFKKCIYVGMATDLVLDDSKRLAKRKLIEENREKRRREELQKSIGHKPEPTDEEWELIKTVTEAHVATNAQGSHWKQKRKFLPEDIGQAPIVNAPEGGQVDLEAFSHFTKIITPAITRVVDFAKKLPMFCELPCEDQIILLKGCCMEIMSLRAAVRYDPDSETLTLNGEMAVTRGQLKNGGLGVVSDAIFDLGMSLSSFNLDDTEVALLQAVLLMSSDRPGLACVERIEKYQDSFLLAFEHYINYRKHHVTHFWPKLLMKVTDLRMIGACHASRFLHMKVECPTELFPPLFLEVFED

Test [6] addresses T4, Mineralocorticoid receptor (Rattus norvegicus, UniProt P22199).
T4 sequence (P22199 whole entry): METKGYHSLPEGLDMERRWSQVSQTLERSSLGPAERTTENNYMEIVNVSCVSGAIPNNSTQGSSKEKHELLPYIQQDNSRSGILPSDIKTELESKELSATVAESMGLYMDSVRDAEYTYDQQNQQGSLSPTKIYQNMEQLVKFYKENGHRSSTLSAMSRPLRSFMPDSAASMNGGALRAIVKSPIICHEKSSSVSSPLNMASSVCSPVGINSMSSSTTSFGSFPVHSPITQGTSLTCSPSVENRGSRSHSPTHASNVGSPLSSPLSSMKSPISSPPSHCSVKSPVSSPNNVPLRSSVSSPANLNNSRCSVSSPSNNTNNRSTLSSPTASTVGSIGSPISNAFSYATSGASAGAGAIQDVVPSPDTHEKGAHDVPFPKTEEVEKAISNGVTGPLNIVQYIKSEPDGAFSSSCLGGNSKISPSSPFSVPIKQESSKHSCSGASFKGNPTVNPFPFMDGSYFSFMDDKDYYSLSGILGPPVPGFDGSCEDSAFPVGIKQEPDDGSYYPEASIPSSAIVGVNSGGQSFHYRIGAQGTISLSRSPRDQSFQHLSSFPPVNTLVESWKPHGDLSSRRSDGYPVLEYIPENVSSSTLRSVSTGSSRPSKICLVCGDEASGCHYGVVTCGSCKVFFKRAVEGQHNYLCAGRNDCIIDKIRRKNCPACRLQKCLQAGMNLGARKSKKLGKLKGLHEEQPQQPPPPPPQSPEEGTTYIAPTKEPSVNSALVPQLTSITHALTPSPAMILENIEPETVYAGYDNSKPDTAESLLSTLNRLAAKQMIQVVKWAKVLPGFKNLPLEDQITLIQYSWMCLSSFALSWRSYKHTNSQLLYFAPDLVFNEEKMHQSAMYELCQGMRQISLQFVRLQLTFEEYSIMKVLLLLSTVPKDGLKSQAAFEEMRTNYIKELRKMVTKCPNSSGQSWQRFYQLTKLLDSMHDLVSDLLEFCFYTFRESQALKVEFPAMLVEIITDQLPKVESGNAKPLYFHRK

The target in test [7] is T5, Thyroid hormone receptor alpha (Rattus norvegicus, UniProt P63059).
T5 sequence (P63059 whole entry): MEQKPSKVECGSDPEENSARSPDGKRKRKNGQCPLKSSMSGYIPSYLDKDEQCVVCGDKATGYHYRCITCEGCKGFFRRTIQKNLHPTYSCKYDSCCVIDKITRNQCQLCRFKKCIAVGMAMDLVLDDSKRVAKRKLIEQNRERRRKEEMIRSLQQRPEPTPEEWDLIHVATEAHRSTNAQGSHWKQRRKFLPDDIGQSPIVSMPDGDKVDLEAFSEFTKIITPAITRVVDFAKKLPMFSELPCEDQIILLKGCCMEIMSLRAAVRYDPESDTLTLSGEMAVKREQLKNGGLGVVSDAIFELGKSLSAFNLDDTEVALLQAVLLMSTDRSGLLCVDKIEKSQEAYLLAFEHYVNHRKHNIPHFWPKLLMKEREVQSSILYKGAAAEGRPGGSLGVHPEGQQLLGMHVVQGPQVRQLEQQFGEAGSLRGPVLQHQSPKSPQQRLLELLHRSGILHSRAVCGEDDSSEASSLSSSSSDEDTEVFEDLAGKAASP

Molecules are shown by their SMILES.

Sequence of Estrogen receptor beta (Q92731 whole entry): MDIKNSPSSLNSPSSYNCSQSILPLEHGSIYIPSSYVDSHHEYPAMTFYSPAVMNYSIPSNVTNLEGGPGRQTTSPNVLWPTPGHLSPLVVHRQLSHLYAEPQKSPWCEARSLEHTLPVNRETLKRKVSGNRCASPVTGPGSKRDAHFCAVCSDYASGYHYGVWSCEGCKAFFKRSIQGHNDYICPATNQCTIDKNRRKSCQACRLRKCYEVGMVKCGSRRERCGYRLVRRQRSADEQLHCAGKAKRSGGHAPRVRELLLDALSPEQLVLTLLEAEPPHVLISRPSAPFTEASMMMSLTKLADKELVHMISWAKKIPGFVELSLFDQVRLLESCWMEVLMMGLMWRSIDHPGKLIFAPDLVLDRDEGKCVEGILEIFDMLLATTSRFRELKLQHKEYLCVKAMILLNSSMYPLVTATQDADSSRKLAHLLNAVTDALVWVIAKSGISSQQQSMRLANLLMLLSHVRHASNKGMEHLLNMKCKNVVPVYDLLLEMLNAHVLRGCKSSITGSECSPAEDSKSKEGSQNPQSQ
Sequence of Progesterone receptor (Homo sapiens) (P06401 whole entry, looked up): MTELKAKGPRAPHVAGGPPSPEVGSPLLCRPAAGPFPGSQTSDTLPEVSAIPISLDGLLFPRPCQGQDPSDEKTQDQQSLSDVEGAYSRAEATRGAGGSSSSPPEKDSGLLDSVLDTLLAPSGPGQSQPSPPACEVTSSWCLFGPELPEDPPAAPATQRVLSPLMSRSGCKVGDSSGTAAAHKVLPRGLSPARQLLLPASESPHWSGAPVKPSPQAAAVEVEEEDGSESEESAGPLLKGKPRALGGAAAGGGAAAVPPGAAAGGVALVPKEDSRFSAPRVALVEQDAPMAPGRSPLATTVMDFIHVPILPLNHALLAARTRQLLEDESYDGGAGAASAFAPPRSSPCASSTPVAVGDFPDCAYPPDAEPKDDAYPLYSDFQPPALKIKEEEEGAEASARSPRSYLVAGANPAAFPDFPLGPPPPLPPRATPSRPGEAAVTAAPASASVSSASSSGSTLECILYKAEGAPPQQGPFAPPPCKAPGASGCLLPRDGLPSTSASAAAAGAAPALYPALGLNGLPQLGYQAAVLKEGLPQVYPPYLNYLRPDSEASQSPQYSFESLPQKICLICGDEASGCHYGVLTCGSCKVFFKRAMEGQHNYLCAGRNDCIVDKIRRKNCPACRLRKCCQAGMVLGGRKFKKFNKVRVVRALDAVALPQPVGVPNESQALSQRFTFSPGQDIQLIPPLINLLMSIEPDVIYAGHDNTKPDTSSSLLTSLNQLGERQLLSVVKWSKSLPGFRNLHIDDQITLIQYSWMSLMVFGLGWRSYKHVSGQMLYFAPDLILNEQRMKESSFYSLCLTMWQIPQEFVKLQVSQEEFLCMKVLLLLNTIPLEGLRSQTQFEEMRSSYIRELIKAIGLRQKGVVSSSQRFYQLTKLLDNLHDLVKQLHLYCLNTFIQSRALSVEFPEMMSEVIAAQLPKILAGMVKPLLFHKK

Take `CC#C[C@]1(O)CC[C@H]2[C@@H]3CCC4=CC(=O)CCC4=C3[C@@H](c3ccc(N(C)CCO[C@H]4CCC5C(C4)C[C@@H](O)C4C5C[C@H](O)C5C(C(C)CCC(=O)O)CCC45)cc3)C[C@@]21C` (stereo partly specified) [A-348441]: the Ki is 0.81 nM in test [1]; 0.27 nM in test [2]; 110 nM in test [3]; 12 nM in test [4]; 1500 nM in test [5]; 440 nM in test [6]. Further, affinity in test [7] was put at a Ki of 670 nM.
`CC#C[C@]1(O)CC[C@H]2[C@@H]3CCC4=CC(=O)CCC4=C3[C@@H](c3ccc(N(C)C)cc3)C[C@@]21C` [CAS_84371-65-3]: the Ki was > 200 nM in test [4], > 2250 nM in test [5], 640 nM in test [6] and > 1250 nM in test [7].
